The experiment can be described thus: oral 10 mg cetirizine pill during allergic reaction. It counts as in vivo, human. Conditions: person, 10 mg pill around noon.

Experimental: The irritants in degraded fall leaves and yard debris caused an overwhelming allergic reaction. They took a pill of 10 mg cetirizine around 12 o'clock noon time. […] They suffered a severe running nose and sneezes. They used the anti-sneeze sticks and cotton swabs described in previous examples frequently.

For the molecule `O=C(O)COCCN1CCN(C(c2ccccc2)c2ccc(Cl)cc2)CC1` (stereo not shown) [cetirizine], the “effect of oral drug on allergic reaction, running nose and sneezes” value is “did not take effect as expected”.

The values are drawn from patent US20150342906A1, “Anti-sneeze and nose vestibule care - compositions, methods, and devices” (priority 2014, published 2015).
